As a reminder, the IC50 is the concentration needed to halve the response being measured.

This note sets out measurements from US11219221B2 (FarmHannong Co., Ltd., priority 2017, dated 2022).

Experiment [1] concerns transgenic A. thaliana (CyPPO16, CyPPO17 and variants). In words: Herbicide spray test on Arabidopsis (T1). Format: in vivo, Arabidopsis thaliana. The note with it: 1 μM spray (100 ml, 0.24 m^2), 4-week-old T1 plants. The source says:
A. thaliana was transformed with a binary vector having ORF of a selectable marker, Bar gene (glufosinate-tolerant gene), and ORF of each mutant gene of CyPPO16 and CyPPO17. The transgenic plant was examined for cross-tolerance towards glufosinate and PPO-inhibiting herbicides. The bar gene was also used to examine whether the transgene was stably inherited during generations. NOS promoter and E9 terminator were used for bar gene expression.
In order to express proteins of CyPPO16, CyPPO16 variants, CyPPO17, and CyPPO17 variants in plants, a CaMV35S promoter and a NOS terminator were used. Encoding genes of CyPPO16, CyPPO16 variants, CyPPO17, and CyPPO17 variants were introduced into binary vector using Xhol and BamHI restriction enzymes. Furthermore, for confirmation of the protein expression, hemagglutinin (HA) tag was fused to the C-terminal region of PPO protein coding gene using BamHI and Sad restriction enzymes. In addition, in order to transit protein to chloroplast, transit peptide (TP) gene (SEQ ID NO: 90) of AtPPO1 gene (SEQ ID NO: 89) was fused to N-terminal region of PPO protein coding gene using Xbal and Xhol restriction enzymes.
Transgenic plants were screened with glufosinate tolerance which was conferred by Bar gene expression in the binary vector. […]

For experiment [2], the target named is Thermosynechococcus sp. NK55a PPO CyPPO17 (SEQ ID NO: 3) variant L326T (MBP fusion). Nature of the experiment: PPO enzyme inhibition (IC50), MBP-fused PPO. Type of experiment: biochemical. The note with it: 50 μM protoporphyrinogen IX, pH 8.0, room temperature, 30 min. How it is done:
(§1) Thus, PPO proteins of wild type and variants were expressed as fused to MBP and were used for experiments.
(§2) The following process for purification of PPO protein was performed in a 4° C. cold room. Amylose resin (NEB) was packed to 1.5×15 cm column (Bio-Rad, Econo Columns 1.5×15 cm, glass chromatography column, max. vol), and the obtained protein extracts were loaded to the column at a flow rate of 0.2 ml/min. The column was washed with 3 column volumes of buffer and the presence of protein in the washing solution was examined. When the protein was no longer detected, the washing procedure was terminated. Then, the MBP-PPO protein was eluted with approximately 2 column volumes of buffer containing 20 mM maltose. The protein concentration of each eluent was determined and the elution was stopped when the protein was no longer detected. Ten microliter of each fraction was investigated for protein quantification and SDS-PAGE analysis. The highly pure fractions of PPO protein variants were used for the enzyme assay.
(§3) Overall process was performed in dark under nitrogen stream. […] of protoporphyrin IX was dissolved in 20 ml of 20% (v/v) EtOH, and stirred under dark condition for 30 minutes. The obtained protoporphyrin IX solution was put into a 15 ml screw tube in an amount of 800 μl, and flushed with nitrogen gas for 5 minutes. To this, 1.5 g of sodium amalgam was added and vigorously shaken for 2 minutes. The lid was opened to exhaust hydrogen gas in the tube. Thereafter, the lid was closed and incubated for 3 minutes. […] To determine the enzyme activity of PPO protein, a reaction mixture was prepared with the following composition (based on 10 ml): 50 mM Tris-Cl (pH 8.0); 50 mM NaCl; 0.04% (v/v) Tween 20; 40 mM glucose (0.072 g); 5 units glucose oxidase (16.6 mg); and 10 units catalase (1 μl).
(§4) Hundred and eighty microliters of a reaction mixture containing the purified PPO protein were placed in 96 well plates and 20 μl of […] were added. […] The reaction proceeded at room temperature for 30 min and the fluorescence of protoporphyrin IX was measured using Microplate reader (Sense, Hidex) (excitation: 405 nm; emission: 633 nm). […] To this, 2.7 N HCl was added, and the absorbance at 408 nm was measured. A standard curve was generated using standard protoporphyrin IX, and PPO activity was measured by calibration of protoporphyrin IX using the standard curve of protoporphyrin IX.

Experiment [3] deals with Thermosynechococcus sp. NK55a PPO CyPPO17, wild type, SEQ ID NO: 3 (MBP fusion). In words: PPO enzyme inhibition (IC50), MBP-fused PPO. Type of experiment: biochemical. Conditions: 50 μM protoporphyrinogen IX, pH 8.0, room temperature, 30 min. As to the method:
as §1, §2, §3, §4

The target in experiment [4] is Thermosynechococcus sp. NK55a PPO CyPPO17 (SEQ ID NO: 3) variant A166L (MBP fusion). Nature of the experiment: PPO enzyme inhibition (IC50), MBP-fused PPO. Type of experiment: biochemical. Conditions: 50 μM protoporphyrinogen IX, pH 8.0, room temperature, 30 min. How it is done:
as §1, §2, §3, §4

The target of experiment [5] is Thermosynechococcus sp. NK55a PPO CyPPO17 (SEQ ID NO: 3) variant R88A (MBP fusion). In words: PPO enzyme inhibition (IC50), MBP-fused PPO. The note with it: 50 μM protoporphyrinogen IX, pH 8.0, room temperature, 30 min. Format: biochemical. How it is done: as §1, §2, §3, §4
Experiment [6] concerns the target Thermosynechococcus sp. NK55a PPO CyPPO17 (SEQ ID NO: 3) variant V304M (MBP fusion). In words: PPO enzyme inhibition (IC50), MBP-fused PPO. Type of experiment: biochemical. The note with it: 50 μM protoporphyrinogen IX, pH 8.0, room temperature, 30 min. As to the method: as §1, §2, §3, §4
Experiment [7] has as its target Thermosynechococcus sp. NK55a PPO CyPPO17 (SEQ ID NO: 3) variant V164C (MBP fusion). In words: PPO enzyme inhibition (IC50), MBP-fused PPO. Type of experiment: biochemical. The note with it: 50 μM protoporphyrinogen IX, pH 8.0, room temperature, 30 min. How it is done:
as §1, §2, §3, §4

The target in experiment [8] is Spirulina subsalsa PPO CyPPO16 (SEQ ID NO: 1) variant F324V (MBP fusion). In words: PPO enzyme inhibition (IC50), MBP-fused PPO. Type of experiment: biochemical. Conditions: 50 μM protoporphyrinogen IX, pH 8.0, room temperature, 30 min. As to the method:
as §1, §2
(§5) Since protoporphyrinogen IX, a substrate of PPO protein, was not commercially available, it was chemically synthesized in the laboratory. Overall process was performed in dark under nitrogen stream. […] of protoporphyrin IX was dissolved in 20 ml of 20% (v/v) EtOH, and stirred under dark condition for 30 minutes. The obtained protoporphyrin IX solution was put into a 15 ml screw tube in an amount of 800 μl, and flushed with nitrogen gas for 5 minutes. To this, 1.5 g of sodium amalgam was added and vigorously shaken for 2 minutes. The lid was opened to exhaust hydrogen gas in the tube. Thereafter, the lid was closed and incubated for 3 minutes. The protoporphyrinogen IX solution was filtered using syringe and cellulose membrane filter. […] To determine the enzyme activity of PPO protein, a reaction mixture was prepared with the following composition (based on 10 ml): 50 mM Tris-Cl (pH 8.0); 50 mM NaCl; 0.04% (v/v) Tween 20; 40 mM glucose (0.072 g); 5 units glucose oxidase (16.6 mg); and 10 units catalase (1 μl).
as §4

Experiment [9] has as its target Spirulina subsalsa PPO CyPPO16 (SEQ ID NO: 1) variant A162C (MBP fusion). In words: PPO enzyme inhibition (IC50), MBP-fused PPO. Format: biochemical. Conditions: 50 μM protoporphyrinogen IX, pH 8.0, room temperature, 30 min. As to the method: as §1, §2, §5, §4
Experiment [10] addresses Spirulina subsalsa PPO CyPPO16 (SEQ ID NO: 1) variant V305M (MBP fusion). In words: PPO enzyme inhibition (IC50), MBP-fused PPO. The note with it: 50 μM protoporphyrinogen IX, pH 8.0, room temperature, 30 min. Type of experiment: biochemical. As to the method: as §1, §2, §5, §4
The target in experiment [11] is Spirulina subsalsa PPO CyPPO16 (SEQ ID NO: 1) variant L327T (MBP fusion). In words: PPO enzyme inhibition (IC50), MBP-fused PPO. Format: biochemical. The note with it: 50 μM protoporphyrinogen IX, pH 8.0, room temperature, 30 min. How it is done:
as §1, §2, §5, §4

For experiment [12], the target named is Thermosynechococcus sp. NK55a PPO CyPPO17 (SEQ ID NO: 3) variant F323V (MBP fusion). In words: PPO enzyme inhibition (IC50), MBP-fused PPO. Format: biochemical. Conditions: 50 μM protoporphyrinogen IX, pH 8.0, room temperature, 30 min. How it is done:
as §1, §2, §5, §4

The target of experiment [13] is Spirulina subsalsa PPO CyPPO16, wild type, SEQ ID NO: 1 (MBP fusion). In words: PPO enzyme inhibition (IC50), MBP-fused PPO. The note with it: 50 μM protoporphyrinogen IX, pH 8.0, room temperature, 30 min. Type of experiment: biochemical. As to the method:
as §1, §2, §5, §4

Experiment [14] has as its target Spirulina subsalsa PPO CyPPO16 (SEQ ID NO: 1) variant A162L (MBP fusion). Nature of the experiment: PPO enzyme inhibition (IC50), MBP-fused PPO. Format: biochemical. The note with it: 50 μM protoporphyrinogen IX, pH 8.0, room temperature, 30 min. As to the method:
as §1, §2, §5, §4

The target of experiment [15] is Spirulina subsalsa PPO CyPPO16 (SEQ ID NO: 1) variant R85A (MBP fusion). Nature of the experiment: PPO enzyme inhibition (IC50), MBP-fused PPO. Format: biochemical. The note with it: 50 μM protoporphyrinogen IX, pH 8.0, room temperature, 30 min. How it is done: as §1, §2, §5, §4
For experiment [16], the target named is Thermosynechococcus sp. NK55a PPO CyPPO17 (SEQ ID NO: 3) variant A166C (MBP fusion). Nature of the experiment: PPO enzyme inhibition (IC50), MBP-fused PPO. Format: biochemical. Conditions: 50 μM protoporphyrinogen IX, pH 8.0, room temperature, 30 min. As to the method: as §1, §2, §5, §4
Experiment [17] deals with Spirulina subsalsa PPO CyPPO16 (SEQ ID NO: 1) variant F156A (MBP fusion). In words: PPO enzyme inhibition (IC50), MBP-fused PPO. Type of experiment: biochemical. The note with it: 50 μM protoporphyrinogen IX, pH 8.0, room temperature, 30 min. As to the method: as §1, §2, §5, §4
Experiment [18] addresses Spirulina subsalsa PPO CyPPO16 (SEQ ID NO: 1) variant V160C (MBP fusion). In words: PPO enzyme inhibition (IC50), MBP-fused PPO. Format: biochemical. Conditions: 50 μM protoporphyrinogen IX, pH 8.0, room temperature, 30 min. As to the method: as §1, §2, §5, §4
Experiment [19] addresses Thermosynechococcus sp. NK55a PPO CyPPO17 (SEQ ID NO: 3) variant F160A (MBP fusion). Nature of the experiment: PPO enzyme inhibition (IC50), MBP-fused PPO. The note with it: 50 μM protoporphyrinogen IX, pH 8.0, room temperature, 30 min. Format: biochemical. As to the method: as §1, §2, §5, §4

For the molecule `COC(=O)CCNC(=O)C(C)Sc1cc(-n2c(=O)cc(C(F)(F)F)n(C)c2=O)c(F)cc1Cl` (stereo not shown) [tiafenacil], the “Plant damage after herbicide spray” value in experiment [1] is listed as “no damage”. For the same molecule, the 50% inhibitory concentration (IC50) in [2] came out at 0.194 µM; in experiment [3], 0.044 µM; in experiment [4] it was 1.13 µM; in [5] it was 0.152 µM; in [6], 0.102 µM; in experiment [7], 0.087 µM. Further, the IC50 came to 0.103 µM in experiment [8]; 0.079 µM in [9]; 0.043 µM in [10]; 0.04 µM in experiment [11]; 0.152 µM in [12]; 0.026 µM in experiment [13]. Also, the half-inhibitory concentration (IC50) was 0.193 µM in experiment [14]; 0.119 µM in [15]; 0.219 µM in experiment [16]; 0.06 µM in experiment [17]; 0.045 µM in [18]; 0.115 µM in experiment [19].
